Measured values from paper PMC10644352, “Bromodomain Factor 5 as a Target for Antileishmanial Drug Discovery” (ACS Infectious Diseases, 2023).

How the values were obtained:
[1] = target: T1, bromodomain factor 5 (LdBDF5), first bromodomain BD5.1 (Leishmania donovani, UniProt A0ACM8QMJ0); test: ITC (also MST Kd […], FP competition IC50 […], TSA, waterLOGSY/STD/CPMG NMR); format: binding
T1 construct: gene CGC21_36735; BD5.1 (first bromodomain of the N-terminal tandem repeat)

[2] = target: T2, bromodomain factor 5 (LdBDF5), second bromodomain BD5.2 (Leishmania donovani, UniProt A0ACM8QMJ0); test: FP competition (also TSA shift; waterLOGSY and CPMG NMR positive, STD inconclusive); format: binding
T2 construct: gene CGC21_36735; BD5.2 (second bromodomain of the N-terminal tandem repeat)
T2 sequence (A0ACM8QMJ0 161-300): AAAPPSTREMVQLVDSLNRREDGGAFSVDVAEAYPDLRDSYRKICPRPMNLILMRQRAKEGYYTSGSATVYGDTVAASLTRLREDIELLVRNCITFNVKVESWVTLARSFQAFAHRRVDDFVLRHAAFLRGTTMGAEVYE

SMILES	Kd [1] [µM]	IC50 [2] [µM]
COc1ccc(CCc2nc3cc(-c4c(C)noc4C)ccc3n2C[C@H](C)N2CCOCC2)cc1Cl [SGC–CBP30]	0.281 ± 0.0123	–
CCn1cc(-c2cccc(C(F)(F)F)c2)c2sc(C(=N)NC3CCS(=O)(=O)CC3)cc2c1=O [I-BRD9]	–	24.7 ± 6.2
